Test results from patent US20240376435A1, “KIDNEY ORGANOID AND METHOD FOR PRODUCING SAME” (OTSUKA PHARMACEUTICAL CO., LTD., priority 2021, published 2024).

Experiments:
[1] = tested on: proximal tubule marker genes; assay: Expression level of proximal tubule marker genes in kidney organoid (LTL MACS, quantitative PCR); format: cell-based, human; details: for expression levels of almost all proximal tubule marker genes: agonist singly at 1 μM, eight days from day 15, among Control, CP1 and 9cisRA1 groups; for expression levels of maturation markers of proximal tubular cells: ACE2, AQP6, CUBN
Method: (§1) The kidney organoid was transferred to a centrifuge tube, and a cell dissociation solution (DPBS (+), 5 mg/mL Bacillus Licheniformis Protease (Sigma-Aldrich), 125 U/mL DNasc (Roche)) was added to the centrifuge tube. Up to 12 organoids were placed in one centrifuge tube. The centrifuge tube was incubated at 6° C. for 30 minutes. During the 30-minute incubation, pipetting was performed every five minutes to prepare a cell suspension containing cells separated from the organoids. To 1 mL of the obtained cell suspension, 4 mL of ice-cold diluted solution A (DPBS (−), 0.5% FBS, 2 mM EDTA, 125 U/mL DNase) was added. The centrifuge tube containing the diluted cell suspension was centrifuged at 300 rcf and 4° C. for 10 minutes, and the supernatant was removed. An ice-cooled diluted solution A was added to the precipitate for resuspension. The cell suspension was centrifuged again and the precipitate was resuspended in the diluted solution A. The obtained cell suspension was transferred to a tube with a 35 μm filter (Falcon) and passed through the filter to prepare a cell suspension containing single cells.
LTL-biotin (1:50) was added to the prepared cell suspension containing single cells and incubated at 4° C. for 15 minutes. Thereafter, the cell suspension was centrifuged at 300 rcf and 4° C. for five minutes, and the supernatant was removed. An ice-cooled diluted solution A was added to the precipitate for resuspension. Centrifuging the cell suspension and obtaining a cell suspension from the precipitate were performed two more times. Anti-biotin microBeads Ultra-Pure was added to the obtained cell suspension in the diluted solution A and incubated at 4° C. for 15 minutes. Thereafter, the cell suspension was centrifuged at 300 ref and 4° C. for five minutes, and the supernatant was removed. The ice-cooled diluted solution A was added to the precipitate for resuspension. This operation was repeated two more times. From the obtained cell suspension in the diluted solution A, cells to which LTL binds (also referred to as LTL-binding cells or LTL-positive cells) were obtained by a MACS method. More specifically, the cell suspension was applied to an MS column (Miltenyi Biotec B.V. & Co. KG) fixed in a magnetic field, and LTL-positive proximal tubular cells were obtained as a positive fraction.
(§2) Total RNA was extracted from the obtained cell suspension containing LTL-positive proximal tubular cells with a Purelink RNA micro kit (Thermofisher Scientific Inc.). Using total RNA obtained as a template, cDNA synthesis was performed using PrimeScript™ RTmastermix (Perfect Real Time) (Takara Bio Inc.). The synthesized cDNA was quantified by real-time PCR with TB Green® Premix Ex Taq™ II (Tli RNase H Plus) (TaKaRa Bio Inc.). Expression level analysis was performed using this quantitative PCR.
On the 15th day of differentiation induction, the induction medium C was replaced with STEMdiff APEL2 medium (0.3 μM CP775146, 1 μM 9-cis retinoic acid, 1% PFHM II, Antibiotic-Antimycotic), and the obtained early kidney organoids were further cultured for eight days (until the 23rd day of differentiation induction).
On the 23rd day of differentiation induction, the degree of maturation of the proximal tubule was examined. The degree of maturation was determined based on the expression level of maturation markers of proximal tubular cells in the kidney organoid by the MACS method with LTL.
In the step C, CP1 group was prepared by culturing, for eight days, the kidney organoid on the 15th day of differentiation induction in STEMdiff APEL2 medium (1 μM CP775146, 1% PFHM II, Antibiotic-Antimycotic), which is a medium obtained by removing retinoic acid from the induction medium C. […]

[2] = tested on: PPARA downstream gene group; assay: Expression level of PPARA downstream gene group in kidney organoid (LTL MACS, quantitative PCR); format: cell-based, human; details: agonist singly at 1 μM, eight days from day 15; among Control, CP1 and 9cisRA1 groups
Method: as §1, with “The cell suspension was centrifuged again and the precipitate was resuspended in the diluted solution A. The obtained cell suspension was transferred to a tube with a 35 μm filter (Falcon) and passed through the filter to prepare a cell suspension containing single cells.” left out
as §2, with “Using total RNA obtained as a template, cDNA synthesis was performed using PrimeScript™ RTmastermix (Perfect Real Time) (Takara Bio Inc.).” left out, “PCR. […]” for “PCR.”

SMILES	expression levels of almost all proximal tubule marker genes [1]	expression levels of almost all PPARA downstream gene groups [2]	further results
CC(C)c1ccc(CC(=O)N2CCC[C@@H](c3cccc(OC(C)(C)C(=O)O)c3)C2)cc1 [CP775146]	No significant difference	No significant difference	
Cc1cccc(Nc2cc(Cl)nc(SCC(=O)O)n2)c1C [pirinic acid]			expression of proximal tubule markers ([1]; Example 9, pirinic acid alone in step C, n=3): increased
CCC(=O)NC[C@H](Cc1ccc(OCCc2nc(-c3ccccc3)oc2C)cc1)N/C(C)=C\C(=O)c1ccc(C(F)(F)F)cc1 [GW6471]			expression levels of maturation markers of proximal tubular cells ([1]; Comparative Example 1, PPARA antagonist at a predetermined concentration in step C, vs control, UGT2A3, AZGP1, BHMT, LRP2, ABCB1, APOA1, APOC3, FABP1): significantly decreased; expression levels of SLC39A4 and CYP27A1 ([1]; Comparative Example 1, PPARA antagonist in step C, vs control): tendency for the expression levels of SLC39A4 (FIG. 12c) and CYP27A1 (FIG. 12l) to decrease; expression levels of maturation markers of proximal tubular cells ([1]; Comparative Example 2, RXR antagonist in step C, vs control, UGT2A3, AZGP1, SLC39A4, BHMT, LRP2, ABCB1, APOA1, APOC3, CYP27A1, FABP1): significantly decreased
CC1=C(/C=C/C(C)=C\C=C\C(C)=C\C(=O)O)C(C)(C)CCC1 [9-cis retinoic acid]	No significant difference	No significant difference	
